From US8318781B2, “G-protein-conjugated receptor agonist” (Japan Science and Technology Agency, priority 2007, dated 2012)
“Also recorded” adds a separate entry of the source. Like-named read-outs stand apart in the source and are kept apart here.

Columns and labels:
Format in all cases: cell-based
human GPR40 (hGPR40) [1] = target: T1, human GPR40 (hGPR40) (Homo sapiens, UniProt O14842); test: ERK assay, screening for GPR40 ligands in cell line TXGPR40; conditions: TXGPR40 cells; for ERK/GPR40 10 μM: ligand 10 μM
T1 construct: expressed in transfected cells; doxycycline-inducible expression vector
Description: (§1) This Test 1 was carried out by using the following materials and methods.
(§2) (1) In this test, the cell lines TXGPR40 and TXGPR120 were plated in 35-mm dishes in 5×10^5 cells/per dish.
(§3) Each ligand was dissolved in DMSO, diluted tenfold with the medium to make the total amount of 100 μl. DMSO was used as the negative control, and PMA (phorbol-12-myristate-13-acetate) was used as the positive control.
(§4) (3) The medium was removed from the dish of the cell to reduce the total amount of liquid to 0.9 ml.
(§5) (4) The ligand solution was added dropwise to the cell solution, and dispersed by gently shaking the dish, and allowed to react at room temperature.
(§6) (5) After 5 minutes of reaction, the medium was discarded, and the remaining medium on the dish was removed on ice using an aspirator.
(§7) (6) 150 μl of Lysis buffer (50 mM HEPES (pH 7.0), 150 mM NaCl, 10% glycerol, 1% NonidetP-40, 2 mM MgCl2, 1 mM EDTA, 100 mM NaF, 10 mM sodium phosphate, 1 mM Na3VO4, 20 mM β-glycerophosphate, and Proteinase inhibitor) were added, then the cells were collected using a cell scraper.
(§8) (1) The crude enzyme solution mixed with SDS Sample Buffer was subjected to ultrasonication with a sonifier, then incubated at 90° C. for five minutes.
(§9) (2) The mixture was vortexed and centrifuged at 15,000 rpm for five minutes at 4° C.
(§10) (3) The supernatant of the centrifuged sample was applied to two 7.5% acrylamide gel slabs placed in an electrophoresis tank filled with 1×SDS-PAGE Running Buffer (25 mM Tris, 0.2 M Glycin, and 1% SDS). Electrophoresis was carried out under a constant current of 40 mA for about 80 to 90 minutes.
(§11) (1) A PVDF membrane cut in the same size as the gel slab was immersed in methanol for about 15 seconds and then shaken in Transfer Buffer C solution (25 mM Tris, 0.02% SDS, 2% methanol and 40 mM 6-aminohexanoic acid) at room temperature to swell for 15 minutes. Filter paper for blotting was cut into a 10-cm square.
(§12) (2) On the blotting apparatus were placed sequentially two pieces of filter paper immersed in A solution (0.3 M Tris, 0.02% SDS and 2% methanol), two pieces of filter paper immersed in B solution (25 mM Tris, 0.02% SDS and 2% methanol), and the membrane thereon. The gel slab after electrophoresis, and finally two pieces of filter paper immersed in C solution was placed thereon, and the apparatus was closed.
(§13) (3) The protein was transferred to the membrane at 15 V for 30 minutes.
(§14) (1) The following procedure was all carried out at room temperature. After the protein transfer, the membrane was placed into a vial containing 1×TTBS (0.2 M Tris, 1.5 M NaCl, 0.2% Tween 20) and washed for 15 minutes.
(§15) (2) TTBS was discarded, and about 10 ml of Block Ace was added and blocked on a shaker for one hour.
(§16) (1) The primary antibodies (p44/42 MAP Kinase Antibody and Phospho-p44/42 MAP Kinase Antibody) were each diluted 1000-fold with TTBS.
(§17) (2) After blocking, the Block Ace solution was removed, the solution of the primary antibody was added and allowed to react on the shaker for two hours.
(§18) (1) The secondary antibody (Anti-rabbit Ig, Horseradish Peroxidase linked F(ab′)2 fragments) was diluted 5000-fold with TTBS.
(§19) (2) The primary antibody solution was removed and the membrane was washed three times on the shaker in TTBS for five to ten minutes each.
(§20) (3) TTBS was removed and the solution of secondary antibody was added and left for 1 hour on the shaker.
(§21) (1) 2 ml each of Detection Reagent 1 and Detection Reagent 2 from ECL kit were mixed together on ice.
(§22) (2) The solution of secondary antibody was removed from the membrane reacted with the secondary antibody and then washed three times on the shaker in TTBS for five minutes each.
(§23) (3) The liquid was thoroughly removed from the membrane, which was then placed in a plastic bag, and 2 ml of the Detection Reagent mixture was added per each membrane.
(§24) (4) The membrane was kept in contact with a film in the cassette for one to five minutes, and the film was developed using an automatic developing machine.

human GPR40 (hGPR40) [2] = target: T1, human GPR40 (hGPR40); test: Determination of intracellular Ca2+ concentration (FLIPR), cell line TXGPR40; conditions: for agonistic activity for GPR40 (in words): cells in which GPR40 has been transgenically expressed; for [Ca^2+]/GPR40 10 μM (ratio vs. LA): relative fluorescence intensity vs LA at 10 μM
Description: (§25) (1) In this test, The cell lines TXGPR40, TXGPR120 and GPR120/Flp-in were plated onto a collagen-coated black 96-well plate in 2×10^5 cells/well. The 96-well plates containing the cells were centrifuged and treated with Doxycycline (final concentration 10 μg/mL), incubated in a CO2 incubator for 21 hours, then used for assay.
(§26) (2) The ligand used in this test includes NCP04, NCP14, NCG20, NCG21, NCG22, NCG23, NCP02, NCP03, NCP05, NCP06, NCG14, NCG17, NCG19, NCG28, NCG29, NCG30, NCG31, NCG34, NCG35, NCG37, NCG38, NCG44, NCG45, NCG46, and NCG54. Each ligand was dissolved in DMSO and adjusted to the concentration of 10 mM, then diluted with Hanks' Balanced Salt Solution (pH 7.4) containing 20 mM HEPES (referred to as FLIPR buffer hereinafter) to the final concentration of 1 to 100 μM. 1% DMSO was used as the negative control, and LA was used as the positive control.
(§27) The ligands and controls were placed in different 96-well plates from the plates for the cells.
(§28) (3) The 96-well plate containing the cells was removed from the CO2 incubator. A fluorescent dye prepared in a twofold higher concentration (Ca Assay Kit Component A diluted with FLIPR Buffer) was added in 50 μL/well, then allowed to stand in the dark at room temperature for one hour.
(§29) (4) After one hour, the 96-well plate containing the cells and the 96-well plate in which ligands and controls were prepared were set on FLIPR (Fluorometric Imaging Plate Reader) for determination.
(§30) (5) Fluorometry using FLIPR was carried out at a laser output of 1.0 W for five minutes. […] after the start of the determination, the ligand (25 μL) was added dropwise to the cell plate at a rate of 50 μL/sec. The intensity of fluorescence was automatically digitized by the application program installed in the FLIPR from the image taken by the CCD camera (with exposure time of 0.40 sec). The interval of data sampling was one second for the initial one minute after the start of operation, and six seconds for the subsequent four minutes.
(§31) (6) The maximum fluorescence intensity was obtained from the data showing the change in the fluorescence intensity over time observed in each well. The maximum fluorescence intensity was plotted against ligand concentration, and pEC50 was calculated. The ratio of the fluorescence intensity for each ligand to LA at 10 μM was calculated as the relative intensity of each ligand.

human GPR120 (hGPR120) [3] = target: T2, human GPR120 (hGPR120) (Homo sapiens, UniProt Q5NUL3); test: Determination of intracellular Ca2+ concentration (FLIPR), cell line TXGPR120; conditions: for selectivity between GPR40 and GPR120 (in words), from Tables 3 and 4: GPR40 versus GPR120, Ca2+ and ERK results; for agonistic activity for hGPR120 (in words): cells in which GPR120 has been transgenically expressed; for [Ca^2+]/GPR120 10 μM (ratio vs. LA): relative fluorescence intensity vs LA at 10 μM, TXGPR120 cells
T2 construct: expressed in transfected cells; doxycycline-inducible expression vector
T2 sequence (Q5NUL3 1-361): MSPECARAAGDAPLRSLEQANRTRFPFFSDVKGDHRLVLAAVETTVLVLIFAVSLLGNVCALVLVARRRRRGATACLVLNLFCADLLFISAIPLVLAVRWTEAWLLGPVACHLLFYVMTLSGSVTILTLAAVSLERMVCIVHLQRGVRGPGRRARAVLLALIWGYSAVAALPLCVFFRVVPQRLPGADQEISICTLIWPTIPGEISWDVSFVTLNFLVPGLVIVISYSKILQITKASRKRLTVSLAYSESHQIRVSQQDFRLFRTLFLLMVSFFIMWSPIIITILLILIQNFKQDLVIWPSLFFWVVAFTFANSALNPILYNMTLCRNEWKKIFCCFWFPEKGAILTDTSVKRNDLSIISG
Description: as §25, §26, §27, §28, §29, §30, §31

human GPR120 (hGPR120) [4] = target: T2, human GPR120 (hGPR120); test: Determination of intracellular Ca2+ concentration (FLIPR), cell line GPR120/Flp-in; conditions: for [Ca^2+]/GPR120/Flp-In 10 μM (ratio vs. LA): relative fluorescence intensity vs LA at 10 μM
Description: as §25, §26, §27, §28, §29, §30, §31

human GPR120 (hGPR120) [5] = target: T2, human GPR120 (hGPR120); test: ERK assay, screening for GPR120 ligands in cell line TXGPR120; conditions: TXGPR120 cells; for ERK/GPR120 10 μM: ligand 10 μM; for ERK/GPR120 10 μM / ERK/GPR120 100 μM: class relative to LA; for ERK/GPR120 100 μM: ligand 100 μM;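 on ERK/GPR120 10 μM: signals normalized between DMSO and PMA controls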
Description: as §1, §2, §3, §4, §5, §6, §7, §8, §9, §10, §11, §12, §13, §14, §15, §16, §17, §18, §19, §20, §21, §22, §23, §24

[6] = GPR120/Flp-in cells, maximum fluorescence intensity vs ligand concentration, read-out: [Ca^2+]/GPR120/Flp-In pEC50 (converted)
[7] = TXGPR40 cells, maximum fluorescence intensity vs ligand concentration, read-out: [Ca^2+]/GPR40 pEC50 (converted)

T1 sequence (O14842 whole entry): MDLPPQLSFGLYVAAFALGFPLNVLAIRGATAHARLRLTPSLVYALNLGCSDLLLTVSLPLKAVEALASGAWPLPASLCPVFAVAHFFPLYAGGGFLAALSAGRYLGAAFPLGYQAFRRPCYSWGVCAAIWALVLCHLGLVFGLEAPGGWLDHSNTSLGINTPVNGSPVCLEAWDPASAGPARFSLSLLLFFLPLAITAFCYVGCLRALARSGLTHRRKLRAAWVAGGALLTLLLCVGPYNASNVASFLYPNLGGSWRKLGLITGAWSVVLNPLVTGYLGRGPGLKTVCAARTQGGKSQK

| SMILES | ERK/GPR40 10 μM (human GPR40 (hGPR40) [1]; class relative to LA) | agonistic activity for GPR40 (in words) (human GPR40 (hGPR40) [2]) | [Ca^2+]/GPR40 10 μM (ratio vs. LA) (human GPR40 (hGPR40) [2]; TXGPR40 cells) | selectivity between GPR40 and GPR120 (in words), from Tables 3 and 4 (human GPR120 (hGPR120) [3]) | agonistic activity for hGPR120 (in words) (human GPR120 (hGPR120) [3]) | [Ca^2+]/GPR120 10 μM (ratio vs. LA) (human GPR120 (hGPR120) [3]) | EC50 (human GPR120 (hGPR120) [4]; [6]) | [Ca^2+]/GPR120/Flp-In 10 μM (ratio vs. LA) (human GPR120 (hGPR120) [4]; GPR120/Flp-in cells) | EC50 (human GPR40 (hGPR40) [2]; [7]) | EC50 (human GPR40 (hGPR40) [2]) | EC50 (human GPR120 (hGPR120) [4]) | ERK activation for GPR40 (in words) (human GPR40 (hGPR40) [1]; FIGS. 1-4) | ERK/GPR40 100 μM (human GPR40 (hGPR40) [1]; ligand 100 μM, class relative to LA) | ERK activation for GPR120 (in words) (human GPR120 (hGPR120) [5]; FIGS. 5-8) | ERK/GPR120 10 μM (human GPR120 (hGPR120) [5]) | ERK/GPR120 100 μM (human GPR120 (hGPR120) [5]) |
| --- | --- | --- | --- | --- | --- | --- | --- | --- | --- | --- | --- | --- | --- | --- | --- | --- |
| O=C(O)CCc1ccc(NCc2cccc3ncccc23)cc1 [NCG14] | ++ (++ denotes 50 to 100% of LA) | showed a specific reactivity | 1.17 | selective agonists for GPR40 | exhibit a similar effect | 0.00 | 14.8 µM | 0.43 |  |  |  |  |  |  |  |  |
| c1ccc(Oc2cccc(CNc3ccc(CCc4nnn[nH]4)cc3)c2)cc1 [NCG17] | ++ (++ denotes 50 to 100% of LA) | showed a specific reactivity | 1.34 | selective agonists for GPR40 | exhibit a similar effect | 0.00 | 5.89 µM | 0.59 | 3.39 µM |  |  |  |  |  |  |  |
| CS(=O)(=O)NC(=O)CCc1ccc(NCc2cccc(Oc3ccccc3)c2)cc1 [NCG19] | ++ (++ denotes 50 to 100% of LA) | showed a specific reactivity | 1.29 | selective agonists for GPR40 | exhibit a similar effect | 0.04 | 17 µM | 0.33 | 2.88 µM |  |  |  |  |  |  |  |
| CCCCN(CCOc1ccc(CCCC(=O)O)cc1)c1ccccn1 [NCG20, 4-{4-[2-(2-butylpyridinylamino)ethoxy]phenyl}butanoic acid] |  |  |  |  |  |  |  |  |  | 27.5 µM | 12.6 µM |  |  |  |  |  |
| CCCCN(CCOc1ccc(CCCCC(=O)O)cc1)c1ccccn1 [NCG22, 5-{4-[2-(2-butylpyridinylamino)ethoxy]phenyl}pentanoic acid] |  |  |  |  |  |  | 19.1 µM |  | 20.4 µM |  |  |  |  |  |  |  |
| O=C(O)CCc1ccc(OCCCN(c2ccccc2)c2ccccn2)cc1 [NCG28] | +++ (+++ denotes a higher value than LA) | showed a specific reactivity | 1.37 |  | exhibit a similar effect | 0.02 | 6.76 µM | 0.54 | 1.12 µM |  |  | activates ERK at lower concentrations; also recorded: strongly activated ERK | +++ (+++ denotes a higher value than LA) | activates ERK | ++ (++ denotes 50 to 100% of LA) | +++ (+++ denotes a higher value than LA) |
| O=C(O)CCCc1ccc(OCCN(c2cccnc2)c2ccccn2)cc1 [NCG45] |  |  | 0.01 |  | exhibit a similar effect | 0.01 | 10 µM | 0.65 |  |  |  |  |  |  | + (+ denotes 0 to 100% of LA) | ++ (++ denotes 50 to 100% of LA) |
| CCCCCCN(CCOc1ccc(CCC(=O)O)cc1)c1ccccn1 [NCP06] |  |  |  |  | exhibit a similar effect |  |  |  |  |  |  |  |  |  |  |  |
